Patent publication US5726153A, “Synthetic peptides for arterial imaging” (New England Deaconess Hospital Corporation, priority 1995, dated 1998)
Entries after “also recorded” stand apart in the source; their conditions may differ. Ends that are not written are not given here.

Tests used:
anti-SP-4 antiserum = assay: ELISA cross-reactivity: peptide-coated plates treated with anti-SP-4 antiserum; type: binding, rabbit; settings: FIG. 4
Procedure: To produce anti-synthetic peptide antisera, purified synthetic peptide was dissolved in PBS, pH 7.4 at a concentration of 1 mg/ml. The peptide solution was mixed with an equal volume of complete Freund's adjuvant and vortexed thoroughly until a thick emulsion was produced. New Zealand White rabbits (Millbrook Farms, Amherst, Mass.) were injected with a total of 0.5 mg synthetic peptide administered subcutaneously in the four dorsal quadrants. The rabbits were given a boost (injected at the same sites) with 0.5 mg peptide emulsified in incomplete Freund's adjuvant 2-3 weeks later. Eight to ten days after the first boost, the animals were given a second, identical boost and were bled of 30 ml 8 to 10 days later.
To test for immunological cross-reactivity microtiter plates (Immulon II Dynatech Labs, Chantilly, Va.) were coated with the purified synthetic peptide or LDL by an overnight incubation at 4° C. with 100 ng peptide per well in 50 mM carbonate, pH 9.6, and blocked for nonspecific binding with an additional overnight incubation with phosphate-buffered saline, pH 7.4 (PBS), 1% bovine serum albumin (BSA). Control wells were coated with BSA alone. After washing twice with PBS, the wells were filled with serial dilutions (1:10 to 1:100,000 made in PBS, 3% BSA) of a rabbit polyclonal antibody generated against the synthetic peptide(s) and incubated for 45 minutes at room temperature. Following thorough washing (3× with PBS, 0.1% BSA), the wells were filled with a 1:2000 dilution of goat anti-rabbit IgG-horseradish peroxidate conjugate (Atlantic Antibodies, Scarborough, Me.). After a final wash, the wells were filled with 3,3'-5,5'- tetramethybenzidine (TMB) microwell peroxidase substrate (Kirkegaard and Perry Labs, Gaithersburg, Md.) and read at 650 nm every two minutes on an ELISA-5 automated plate reader (Physica, New York, N.Y.). Results (see, e.g., FIGS. 4 and 5) are expressed as the initial velocity of substrate conversion (change in OD650 /hr), which is determined by a linear regression of 15 data points per well. Each data point represents the average of three measured data points from the same plate, run at the same time.

[1] = Plasma decay of 125I-labelled synthetic peptide after intravenous injection; type: in vivo, rabbit; settings: for plasma level leveled off to / plasma level after one hour: 125I-labelled peptide, intravenous, rabbit; for additional fall of plasma level over the next three hours: from one to four hours after injection
Procedure: (§1) Each labelled synthetic peptide preparation (containing, for example, 150 to 400 or more μCi of ^125 I-labelled peptide) in column elution buffer was injected into the marginal ear vein of the ballooned and healing New Zealand white rabbits or WHHL rabbits. Serial blood samples were obtained from the opposite ear during the ensuing 0-24 hours and were analyzed for radioactivity. The labelled peptide concentrations in the blood samples that were withdrawn over the first 10 minutes after injection were extrapolated to zero time to determine the time zero radioactivity in the calculation of average plasma radioactivity. […] Peptides SP15a, SP17, SP19a, SP21a, SP28, SP34a, and SP30 were cleared rapidly from the plasma with half-lives of about one minute or less; after one hour, the plasma levels were less than 10% of the injected dose and fell by an additional 1% over the next three hours. Peptides SP15a, SP17, SP21a, SP28, SP34a, and SP30 leveled off to a plasma level of 3-6%; peptide SP19a cleared more quickly and leveled off to a concentration of 0.3% (at four hours).

[2] = tested on: balloon de-endothelialized healing abdominal aorta; assay: Focal accumulation at vascular injury, onlay autoradiography of excised aorta, balloon de-endothelialized rabbit; type: in vivo, New Zealand white rabbits
Procedure: The peptides described herein were assayed for their ability to target sites of vascular injury as follows. Male New Zealand white rabbits (2 to 3 kg each) were obtained from ARI Breeding Labs, West Bridgewater, Mass. To induce vascular injury, their abdominal aortas were denuded of endothelium by a modification of the Baumgartner technique (Fischman et al., Arteriosclerosis 7:361, 1987). Briefly, after each animal was anesthetized with ketamine and ether or, alternatively, with xylazine (20 mg/ml) and Ketalar (50 mg/ml), the left femoral artery was isolated; a 4F Fogarty embolectomy catheter (Model 12-040-4F, Edwards Laboratories Incorporated, Santa Anna, Calif.) was introduced through an arterotomy in the femoral artery and was advanced under fluoroscopic visualization to the level of the diaphragm. The catheter was inflated to a pressure of about 3 psi above the balloon inflation pressure with radiographic contrast medium (Conray, Mallinkrodt, St. Louis, Mo.). Three passes were made through the abdominal aorta with the inflated catheter to remove the aortic endothelium before removal of the catheter, ligation of the femoral artery, and closure of the wound. The animals were allowed to heal for a period of 4 to 5 weeks before injection of the labelled synthetic peptides.
as §1
One to twenty-four hours after injection of the labelled synthetic peptide preparations, each animal was injected intravenously with 4 ml of a 0.5% solution of Evans blue dye (Allied Chemical Company, National Aniline Division, NY, N.Y.) which stains areas of de-endothelialized aorta blue. After 30 minutes, the animal was sacrificed by a lethal injection of pentobarbital. After sacrifice, the aorta was removed completely, washed in saline, and fixed in 10% trichloroacetic acid.
The washed and fixed aortas from the animals that had been injected with radiolabelled synthetic peptide were opened along the ventral surface. These segments were then pinned out, fixed for 2 hours in 10% trichloroacetic acid, and photographed. The fixed, opened vessels were then covered with a single layer of plastic (Saran) wrap, placed on high speed x-ray film (Kodak Orthofilm OH-1), and stored for 3 days to 4 weeks in a Kodak "X-Omatic cassette" (24×30 cm) at -70° C. before development in a 90 second X-OMAT.

[3] = tested on: atherosclerotic lesions of the aorta; assay: Focal accumulation at atherosclerotic lesions, onlay autoradiography of excised aorta, WHHL rabbit; type: in vivo, Watanabe Heritable Hyperlipemic (WHHL) rabbits; settings: FIG. 7
Procedure: Watanabe Heritable Hyperlipemic (WHHL) rabbits were also used as animal models. They were obtained from the WHHL Rabbit Program of the National Heart Lung and Blood Institute (Bethesda, Md.) at about 3 months of age and weighing about 1.5 kg. The animals were raised until they were 3-4 kg in weight.
as §1, with “hours). […]” for “hours).”

Substance	binding of anti-SP-4 antiserum to the peptide (anti-SP-4 antiserum)	plasma level leveled off to [1]	plasma level after one hour [1]	additional fall of plasma level over the next three hours [1] [%]	localization of 125I-labelled peptide on onlay autoradiograph of the aorta [2]	localization of 125I-labelled peptide on onlay autoradiograph of the aorta [3]	plasma concentration leveled off to ([1]; at four hours) [%]
CH3 CONH-Tyr-Arg-Ala-Leu-Val-Asp-Thr-Leu-Lys-CONH2 (Ac-YRALVDTLK-NH2) [SP-14A, modified counterpart of SP-14]	bind	–	–	–	–	–	–
Ac-YAKFRETLEDTRDRMY-NH2 [SP-15a, CH3 CONH-Tyr-Ala-Lys-Phe-Arg-Glu-Thr-Leu-Glu-Asp-Thr-Arg-Asp-Arg-Met-Tyr-CONH2]	–	3-6%	less than 10 % of the injected dose	1	accumulated focally at the leading edges of regenerating endothelial tissue	–	–
YVPGVGVPGVGVPGVGVPGVG-NH2 [SP-30, H2 N-Tyr-Val-Pro-Gly-Val-Gly-Val-Pro-Gly-Val-Gly-Val-Pro-Gly-Val-Gly-Val-pro- Gly-Val-Gly-CONH2]	–	3-6%	less than 10 % of the injected dose	1	accumulated focally at the leading edges of regenerating endothelial tissue	–	–
Ac-YRALVDTEFKVKQEAGAK-NH2 [SP-21a, CH3 CONH-Tyr-Arg-Ala-Leu-Val-Asp-Thr-Glu-Phe-Lys-Val-Lys-Gln-Glu-Ala-Gly-Ala-Lys-CONH2]	–	3-6%	less than 10 % of the injected dose	1	accumulated focally at the leading edges of regenerating endothelial tissue	–	–
CH3 CONH-Tyr-Lys-Leu-Ala-Leu-Glu-Ala-Ala-Arg-Leu-Leu-Ala-Asp-Ala-Glu-Gly-Ala-Lys-CONH2 (Ac-YKLALEAARLLADAEGAK-NH2) [SP-6A, modified counterpart of SP-6]	bind	–	–	–	–	–	–
H2 N-Tyr-Lys-Leu-Ala-Leu-Glu-Ala-Ala-Arg-Leu-Leu-Ala-Asn-Ala-Glu-Gly-Ala-Lys- CONH2 (H-YKLALEAARLLANAEGAK-NH2) [SP-8, conservatively substituted SP-4]	bind	–	–	–	–	–	–
Ac-YVLDEFREKLNEELEALKQK-NH2 [SP-34a]	–	3-6%	less than 10 % of the injected dose	1	accumulated focally at the leading edges of regenerating endothelial tissue	–	–
NH2 -Tyr-Arg-Ala-Leu-Val-Asp-Thr-Leu-Lys-Phe-Val-Thr-Gln-Ala-Glu-Gly-Ala-Lys-CONH2 (H-YRALVDTLKFVTQAEGAK-NH2) [SP-4]	bind	–	–	–	clear-cut localization of the synthetic peptide on the image at the healing (re-endothelizing) edge of the aortic lesions; also recorded: labelled healing lesions	clearly correspond to the radioactively-labelled lesions; also recorded: localizes at atherosclerotic lesions	–
YAALDLNAVANKIADFEL-NH2 [SP-17, H2 N-Tyr-Ala-Ala-Leu-Asp-Leu-Asn-Ala-Val-Ala-Asn-Lys-Ile-Ala-Asp-Phe-Glu-Leu- CONH2]	–	3-6%	less than 10 % of the injected dose	1	accumulated focally at the leading edges of regenerating endothelial tissue	–	–
CH3 CONH-Tyr-Arg-Ala-Leu-Val-Asp-Tyr-Leu-Lys-Phe-Val-Thr-Gln-Leu-CONH2 (Ac-YRALVDYLKFVTQL-NH2) [SP-12A, modified counterpart of SP-12]	bind	–	–	–	–	–	–
H2 N-Tyr-Lys-Leu-Ala-Leu-Glu-Ala-Ala-Arg-Leu-Leu-Ala-Asp-Ala-Glu-Gly-Ala-Lys- CONH2 (H-YKLALEAARLLADAEGAK-NH2) [SP-6, conservatively substituted SP-4]	bind	–	–	–	–	–	–
Ac-YRALVDTLKFVTEQAKGA-NH2 [SP-19a, CH3 CONH-Tyr-Arg-Ala-Leu-Val-Asp-Thr-Leu-Lys-Phe-Val-Thr-Glu-Gln-Ala-Lys-Gly-Ala-CONH2]	–	–	less than 10 % of the injected dose	1	accumulated focally at the leading edges of regenerating endothelial tissue	–	0.3
CH3 CONH-Tyr-Arg-Ala-Leu-Val-Asp-Thr-Leu-Lys-Phe-Val-Thr-Gln-Ala-Glu-Gly-Ala-Lys-CONH2 (Ac-YRALVDTLKFVTQAEGAK-NH2) [SP-4A, modified counterpart of SP-4]	bind	–	–	–	–	–	–
CH3 CONH-Tyr-Lys-Leu-Ala-Leu-Glu-Ala-Ala-Arg-Leu-Leu-Ala-Asn-Ala-Glu-Gly-Ala-Lys-CONH2 (Ac-YKLALEAARLLANAEGAK-NH2) [SP-8A, modified counterpart of SP-8]	bind	–	–	–	–	–	–
YVGVAPGVGVAPGVGVAPG [SP-28, H2 N-Tyr-Val-Gly-Val-Ala-Pro-Gly-Val-Gly-Val-Ala-Pro-Gly-Val-Gly-Val-Ala-Pro- Gly-OH]	–	3-6%	less than 10 % of the injected dose	1	accumulated focally at the leading edges of regenerating endothelial tissue	–	–
